The values below come from ChEMBL document CHEMBL3045568, “Novel 2-pyrazoline derivatives as potential anticonvulsant agents” (Med Chem Res, 2013).

Active and inactive are the calls of the source. No cut-off for these calls is given here.

For one series, the system named is Mus musculus. Briefly: Anticonvulsant activity in albino Mus musculus (mouse) assessed as protection against maximal electroshock-induced seizures at 30 mg/kg, ip after 0.5 hr relative to control.
Settings: not given
The class given is functional, organism-based. Also on record: dose 30 mg/kg.
Take `NC(=S)N1N=C(c2ccccn2)CC1c1cccc(Cl)c1` (configuration not stated): the result was Active.

As for `NC(=S)N1N=C(c2ccccn2)CC1c1ccc(Cl)cc1` (configuration not stated), the result was inactive.

With `CCNC(=S)N1N=C(c2ccccn2)CC1c1cccc(Cl)c1` (configuration not stated), the result was inactive.

Consider `CCNC(=S)N1N=C(c2ccccn2)CC1c1ccc(OCc2ccccc2)cc1` (configuration not stated), for which the outcome was inactive.

Test system in a further series: not listed separately
Briefly: Partition coefficient, log P of the compound. Type of series: physicochemical. The conditions noted are these: octanol/water.
`NC(=S)N1N=C(c2ccccn2)CC1c1cccc(Cl)c1` (configuration not stated) yielded a logP of 4.15.

With `NC(=S)N1N=C(c2ccccn2)CC1c1ccc(Cl)cc1` (configuration not stated), the logP was determined as 4.21.

As for `CCNC(=S)N1N=C(c2ccccn2)CC1c1cccc(Cl)c1` (configuration not stated), the logP is 3.2.

The compound `CCNC(=S)N1N=C(c2ccccn2)CC1c1ccc(OCc2ccccc2)cc1` (configuration not stated) displayed a logP of 1.46.

Another series has as its system Mus musculus. Briefly: Neurotoxicity in albino Mus musculus (mouse) assessed as motor impairment at 100 mg/kg, ip after 0.5 hr relative to control. The class given is toxicity, organism-based. Also noted: dose 100 mg/kg, route intraperitoneal. As to conditions: in vivo.
Turning to `NC(=S)N1N=C(c2ccccn2)CC1c1cccc(Cl)c1` (configuration not stated), the Activity result is given as “Non-toxic”.

In the case of `NC(=S)N1N=C(c2ccccn2)CC1c1ccc(Cl)cc1` (configuration not stated), the Activity result is reported as “Non-toxic”.

For `CCNC(=S)N1N=C(c2ccccn2)CC1c1cccc(Cl)c1` (configuration not stated), the Activity entry was “Non-toxic”.

Consider `CCNC(=S)N1N=C(c2ccccn2)CC1c1ccc(OCc2ccccc2)cc1` (configuration not stated), for which the Activity entry is “Non-toxic”.

Another series deals with Mus musculus. Briefly: Neurotoxicity in albino Mus musculus (mouse) assessed as motor impairment at 30 mg/kg, ip after 0.5 hr relative to control. Type of series: toxicity, organism-based. Also noted: dose 30 mg/kg, route intraperitoneal. As to conditions: in vivo.
As for `NC(=S)N1N=C(c2ccccn2)CC1c1cccc(Cl)c1` (configuration not stated), the Activity entry is recorded as “Non-toxic”.

On to `NC(=S)N1N=C(c2ccccn2)CC1c1ccc(Cl)cc1` (configuration not stated), for which the Activity result is given as “Non-toxic”.

Consider `CCNC(=S)N1N=C(c2ccccn2)CC1c1cccc(Cl)c1` (configuration not stated), for which the Activity result is “Non-toxic”.

For `CCNC(=S)N1N=C(c2ccccn2)CC1c1ccc(OCc2ccccc2)cc1` (configuration not stated), the Activity result was “Non-toxic”.

Another series concerns Mus musculus. Briefly: Anticonvulsant activity in albino Mus musculus (mouse) assessed as protection against subcutaneous pentylenetetrazol-induced seizures at 300 mg/kg, ip after 4 hr relative to control. Type of series: functional, organism-based. Also on record: dose 300 mg/kg.
Settings: not given
As to `NC(=S)N1N=C(c2ccccn2)CC1c1cccc(Cl)c1` (configuration not stated), the result was Active.

In the case of `NC(=S)N1N=C(c2ccccn2)CC1c1ccc(Cl)cc1` (configuration not stated), the outcome was inactive.

As to `CCNC(=S)N1N=C(c2ccccn2)CC1c1cccc(Cl)c1` (configuration not stated), the outcome was inactive.

In the case of `CCNC(=S)N1N=C(c2ccccn2)CC1c1ccc(OCc2ccccc2)cc1` (configuration not stated), the outcome was inactive.

The test system of the next series is Mus musculus. Briefly: Anticonvulsant activity in albino Mus musculus (mouse) assessed as protection against subcutaneous pentylenetetrazol-induced seizures at 100 mg/kg, ip after 4 hr relative to control. Also noted: dose 100 mg/kg.
Settings: not given
Type of series: functional, organism-based.
Turning to `NC(=S)N1N=C(c2ccccn2)CC1c1cccc(Cl)c1` (configuration not stated), the result was inactive.

Take `NC(=S)N1N=C(c2ccccn2)CC1c1ccc(Cl)cc1` (configuration not stated): the outcome was inactive.

For `CCNC(=S)N1N=C(c2ccccn2)CC1c1cccc(Cl)c1` (configuration not stated), the outcome was inactive.

Take `CCNC(=S)N1N=C(c2ccccn2)CC1c1ccc(OCc2ccccc2)cc1` (configuration not stated): the outcome was inactive.

The next series deals with Mus musculus. Briefly: Anticonvulsant activity in albino Mus musculus (mouse) assessed as protection against subcutaneous pentylenetetrazol-induced seizures at 30 mg/kg, ip after 4 hr relative to control. The class given is functional, organism-based. Also noted: dose 30 mg/kg.
Settings: not given
Turning to `NC(=S)N1N=C(c2ccccn2)CC1c1cccc(Cl)c1` (configuration not stated), the result was inactive.

In the case of `NC(=S)N1N=C(c2ccccn2)CC1c1ccc(Cl)cc1` (configuration not stated), the outcome was inactive.

Consider `CCNC(=S)N1N=C(c2ccccn2)CC1c1cccc(Cl)c1` (configuration not stated), for which the result was inactive.

Take `CCNC(=S)N1N=C(c2ccccn2)CC1c1ccc(OCc2ccccc2)cc1` (configuration not stated): the outcome was inactive.

A further series has as its system Mus musculus. Briefly: Anticonvulsant activity in albino Mus musculus (mouse) assessed as protection against subcutaneous pentylenetetrazol-induced seizures at 300 mg/kg, ip after 0.5 hr relative to control.
Settings: not given
Also on record: dose 300 mg/kg. The class given is functional, organism-based.
In the case of `NC(=S)N1N=C(c2ccccn2)CC1c1cccc(Cl)c1` (configuration not stated), the result was Active.

On to `NC(=S)N1N=C(c2ccccn2)CC1c1ccc(Cl)cc1` (configuration not stated), for which the outcome was Active.

For the compound `CCNC(=S)N1N=C(c2ccccn2)CC1c1cccc(Cl)c1` (configuration not stated), the outcome was Active.

With `CCNC(=S)N1N=C(c2ccccn2)CC1c1ccc(OCc2ccccc2)cc1` (configuration not stated), the result was Active.

In the next series the test system is Mus musculus. Briefly: Anticonvulsant activity in albino Mus musculus (mouse) assessed as protection against subcutaneous pentylenetetrazol-induced seizures at 100 mg/kg, ip after 0.5 hr relative to control. Also noted: dose 100 mg/kg. The class given is functional, organism-based.
Settings: not given
As to `NC(=S)N1N=C(c2ccccn2)CC1c1cccc(Cl)c1` (configuration not stated), the result was inactive.

In the case of `NC(=S)N1N=C(c2ccccn2)CC1c1ccc(Cl)cc1` (configuration not stated), the outcome was inactive.

Consider `CCNC(=S)N1N=C(c2ccccn2)CC1c1cccc(Cl)c1` (configuration not stated), for which the outcome was inactive.

Consider `CCNC(=S)N1N=C(c2ccccn2)CC1c1ccc(OCc2ccccc2)cc1` (configuration not stated), for which the outcome was inactive.

The next series has as its system Mus musculus. Briefly: Anticonvulsant activity in albino Mus musculus (mouse) assessed as protection against subcutaneous pentylenetetrazol-induced seizures at 30 mg/kg, ip after 0.5 hr relative to control. Type of series: functional, organism-based. Also on record: dose 30 mg/kg.
Settings: not given
With `NC(=S)N1N=C(c2ccccn2)CC1c1cccc(Cl)c1` (configuration not stated), the result was inactive.

As to `NC(=S)N1N=C(c2ccccn2)CC1c1ccc(Cl)cc1` (configuration not stated), the result was inactive.

In the case of `CCNC(=S)N1N=C(c2ccccn2)CC1c1cccc(Cl)c1` (configuration not stated), the outcome was inactive.

Turning to `CCNC(=S)N1N=C(c2ccccn2)CC1c1ccc(OCc2ccccc2)cc1` (configuration not stated), the result was inactive.

The subject of another series is Mus musculus. Briefly: Anticonvulsant activity in albino Mus musculus (mouse) assessed as protection against maximal electroshock-induced seizures at 300 mg/kg, ip after 4 hr relative to control. Type of series: functional, organism-based.
Settings: not given
Also on record: dose 300 mg/kg.
As to `NC(=S)N1N=C(c2ccccn2)CC1c1cccc(Cl)c1` (configuration not stated), the result was Active.

As for `NC(=S)N1N=C(c2ccccn2)CC1c1ccc(Cl)cc1` (configuration not stated), the outcome was Active.

As for `CCNC(=S)N1N=C(c2ccccn2)CC1c1cccc(Cl)c1` (configuration not stated), the result was inactive.

For `CCNC(=S)N1N=C(c2ccccn2)CC1c1ccc(OCc2ccccc2)cc1` (configuration not stated), the result was inactive.

Another series deals with Mus musculus. Briefly: Anticonvulsant activity in albino Mus musculus (mouse) assessed as protection against maximal electroshock-induced seizures at 100 mg/kg, ip after 4 hr relative to control. The class given is functional, organism-based. Also noted: dose 100 mg/kg.
Settings: not given
Consider `NC(=S)N1N=C(c2ccccn2)CC1c1cccc(Cl)c1` (configuration not stated), for which the result was inactive.

Regarding `NC(=S)N1N=C(c2ccccn2)CC1c1ccc(Cl)cc1` (configuration not stated), the outcome was inactive.

With `CCNC(=S)N1N=C(c2ccccn2)CC1c1cccc(Cl)c1` (configuration not stated), the outcome was inactive.

Regarding `CCNC(=S)N1N=C(c2ccccn2)CC1c1ccc(OCc2ccccc2)cc1` (configuration not stated), the result was inactive.

The subject of another series is Mus musculus. Briefly: Anticonvulsant activity in albino Mus musculus (mouse) assessed as protection against maximal electroshock-induced seizures at 30 mg/kg, ip after 4 hr relative to control. Also noted: dose 30 mg/kg. The class given is functional, organism-based.
Settings: not given
As to `NC(=S)N1N=C(c2ccccn2)CC1c1cccc(Cl)c1` (configuration not stated), the result was inactive.

Turning to `NC(=S)N1N=C(c2ccccn2)CC1c1ccc(Cl)cc1` (configuration not stated), the outcome was inactive.

As to `CCNC(=S)N1N=C(c2ccccn2)CC1c1cccc(Cl)c1` (configuration not stated), the result was inactive.

For `CCNC(=S)N1N=C(c2ccccn2)CC1c1ccc(OCc2ccccc2)cc1` (configuration not stated), the result was inactive.

For another series, the system named is Mus musculus. Briefly: Anticonvulsant activity in albino Mus musculus (mouse) assessed as protection against maximal electroshock-induced seizures at 300 mg/kg, ip after 0.5 hr relative to control. Type of series: functional, organism-based. Also on record: dose 300 mg/kg.
Settings: not given
Regarding `NC(=S)N1N=C(c2ccccn2)CC1c1cccc(Cl)c1` (configuration not stated), the result was Active.

Regarding `NC(=S)N1N=C(c2ccccn2)CC1c1ccc(Cl)cc1` (configuration not stated), the outcome was Active.

For `CCNC(=S)N1N=C(c2ccccn2)CC1c1cccc(Cl)c1` (configuration not stated), the outcome was Active.

`CCNC(=S)N1N=C(c2ccccn2)CC1c1ccc(OCc2ccccc2)cc1` (configuration not stated): the result was Active.

The test system of another series is Mus musculus. Briefly: Anticonvulsant activity in albino Mus musculus (mouse) assessed as protection against maximal electroshock-induced seizures at 100 mg/kg, ip after 0.5 hr relative to control. The class given is functional, organism-based.
Settings: not given
Also noted: dose 100 mg/kg.
Turning to `NC(=S)N1N=C(c2ccccn2)CC1c1cccc(Cl)c1` (configuration not stated), the outcome was Active.

Turning to `NC(=S)N1N=C(c2ccccn2)CC1c1ccc(Cl)cc1` (configuration not stated), the outcome was Active.

For `CCNC(=S)N1N=C(c2ccccn2)CC1c1cccc(Cl)c1` (configuration not stated), the result was Active.

For the compound `CCNC(=S)N1N=C(c2ccccn2)CC1c1ccc(OCc2ccccc2)cc1` (configuration not stated), the result was Active.

The test system of another series is Mus musculus. Briefly: Neurotoxicity in albino Mus musculus (mouse) assessed as motor impairment at 300 mg/kg, ip after 4 hr relative to control. Type of series: toxicity, organism-based. Also noted: dose 300 mg/kg, route intraperitoneal. As to conditions: in vivo.
With `NC(=S)N1N=C(c2ccccn2)CC1c1cccc(Cl)c1` (configuration not stated), the Activity result was “Non-toxic”.

For `NC(=S)N1N=C(c2ccccn2)CC1c1ccc(Cl)cc1` (configuration not stated), the Activity result is given as “Non-toxic”.

As to `CCNC(=S)N1N=C(c2ccccn2)CC1c1cccc(Cl)c1` (configuration not stated), the Activity result is on record as “Non-toxic”.

Regarding `CCNC(=S)N1N=C(c2ccccn2)CC1c1ccc(OCc2ccccc2)cc1` (configuration not stated), the Activity entry is “Non-toxic”.

The test system of a further series is Mus musculus. Briefly: Neurotoxicity in albino Mus musculus (mouse) assessed as motor impairment at 100 mg/kg, ip after 4 hr relative to control. Type of series: toxicity, organism-based. Also on record: dose 100 mg/kg, route intraperitoneal. The conditions noted are these: in vivo.
Regarding `NC(=S)N1N=C(c2ccccn2)CC1c1cccc(Cl)c1` (configuration not stated), the Activity entry is listed as “Non-toxic”.

With `NC(=S)N1N=C(c2ccccn2)CC1c1ccc(Cl)cc1` (configuration not stated), the Activity result was “Non-toxic”.

Consider `CCNC(=S)N1N=C(c2ccccn2)CC1c1cccc(Cl)c1` (configuration not stated), for which the Activity result is listed as “Non-toxic”.

With `CCNC(=S)N1N=C(c2ccccn2)CC1c1ccc(OCc2ccccc2)cc1` (configuration not stated), the Activity result is “Non-toxic”.

A further series relates to Mus musculus. Briefly: Neurotoxicity in albino Mus musculus (mouse) assessed as motor impairment at 30 mg/kg, ip after 4 hr relative to control. As to conditions: in vivo. Also on record: dose 30 mg/kg, route intraperitoneal. The class given is toxicity, organism-based.
With `NC(=S)N1N=C(c2ccccn2)CC1c1cccc(Cl)c1` (configuration not stated), the Activity entry is “Non-toxic”.

Regarding `NC(=S)N1N=C(c2ccccn2)CC1c1ccc(Cl)cc1` (configuration not stated), the Activity result is on record as “Non-toxic”.

`CCNC(=S)N1N=C(c2ccccn2)CC1c1cccc(Cl)c1` (configuration not stated): the Activity result is “Non-toxic”.

For the compound `CCNC(=S)N1N=C(c2ccccn2)CC1c1ccc(OCc2ccccc2)cc1` (configuration not stated), the Activity entry is given as “Non-toxic”.
